Results on 34 molecules are retold here after US20080221086A1, “Novel Inhibitors of Glutaminyl Cyclase” (PROBIODRUG AG, priority 2006, published 2008).

Where two headings read alike, the source gives them in different places.

The target in this assay is hQC (Homo sapiens, UniProt Q16769). Kind of assay: Fluorometric assay of glutaminyl cyclase (QC) inhibition, H-Gln-βNA or H-Gln-AMC substrate. Type of assay: biochemical. The method in brief:
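Fluorometric coupled assays at 30° C in Tris/HCl pH 8.0 with EDTA and pyroglutamyl aminopeptidase used either 0.2 mM H-Gln-βNA (320/410 nm) or H-Gln-AMC (380/460 nm), started by QC. Screening used 4 mM inhibitor at substrate 1 KM. Ki came from fitting progress curves to competitive inhibition.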

Where [1] appears, read: compound from preparative synthesis, purified by chromatography, fluorescent assay, read-out: IC50 hQC.

Sequence of hQC (Q16769 29-361): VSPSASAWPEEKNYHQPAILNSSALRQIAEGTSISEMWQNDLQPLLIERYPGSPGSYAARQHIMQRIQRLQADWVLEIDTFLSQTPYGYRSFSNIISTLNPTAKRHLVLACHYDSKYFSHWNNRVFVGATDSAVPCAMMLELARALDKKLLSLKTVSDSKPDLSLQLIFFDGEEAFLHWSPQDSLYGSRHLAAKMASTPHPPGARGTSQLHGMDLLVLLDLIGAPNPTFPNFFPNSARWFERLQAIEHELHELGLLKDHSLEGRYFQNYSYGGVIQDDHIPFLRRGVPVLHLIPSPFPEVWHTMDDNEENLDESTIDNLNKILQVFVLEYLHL

Regarding `Cc1ccc(C2/C(=N/C(C)C)NC(=O)N2c2ccc3[nH]cnc3c2)c(C)c1` (stereo not drawn) [Compound 156, 1-(1H-Benzoimidazol-5-yl)-5-(2,4-dimethyl-phenyl)-4-isopropylimino-imidazolidin-2-one], the half-maximal inhibitory concentration (IC50) (read-out: IC50) stood at 0.4 µM. `CC1=CC(C)C(C2/C(=N/CC(=O)N3CCCN(C)CC3)NC(=O)N2c2ccc3[nH]cnc3c2)CC1` (stereo not drawn) [Compound 243, 1-(1H-Benzoimidazol-5-yl)-5-(2,4-dimethyl-cyclohex-3-enyl)-4-2-(4-methyl-1,4diazepan-1-yl)-2-oxo-ethylimino-imidazolidin-2-one]: the 50% inhibitory concentration (IC50) (read-out: IC50) stood at 5.8 µM. Turning to `O=C1N/C(=N/CCc2c[nH]c3ccccc23)C(c2ccccc2Cl)N1CCCn1ccnc1` (stereo not drawn) [Compound 55, 5-(2-Chloro-phenyl)-1-(3-imidazol-1-yl-propyl)-4-2-(1H-indol-3-yl)-ethylimino-imidazolidin-2-one], the IC50 was 0.482 µM under setting [1] and 2.2 µM (read-out: IC50). For `CC1=CC(C)C(C2/C(=N/C(C)C(C)(C)C)NC(=S)N2c2ccc3nc[nH]c3c2)CC1` (stereo not drawn) [Compound 165, 1-(3H-Benzoimidazol-5-yl)-5-(2,4-dimethyl-cyclohex-3-enyl)-4-1,2,2-trimethyl-propylimino-imidazolidine-2-thione], the IC50 (read-out: IC50) is 7.6 µM. For the molecule `O=C1N/C(=N\C(c2ccccc2)c2ccccc2)C(c2cccc(F)c2)N1CCCn1ccnc1` (stereo not drawn) [Compound 88, 4-Benzhydrylimino-5-(3-fluoro-phenyl)-1-(3-imidazol-1-yl-propyl)-imidazolidin-2-one], the half-maximal inhibitory concentration (IC50) (read-out: IC50) was found to be 5.8 µM. As for `O=C1N/C(=N\C2CCc3ccccc32)CN1c1ccc2[nH]cnc2c1` (stereo not drawn) [Compound 198, 1-(1H-Benzoimidazol-5-yl)-4-indan-1-ylimino-imidazolidin-2-one], for the setting “read-out: IC50”, the half-inhibitory concentration (IC50) stood at 4 µM. For the molecule `COC(=O)C(C)/N=C1\NC(=S)N(c2ccc3[nH]cnc3c2)C1c1ccc(C)cc1` (stereo not drawn) [Compound 320, Methyl 2-(1-(1H-benzo[d]imidazol-5-yl)-2-thioxo-5-p-tolylimidazolidin-4-ylideneamino)propanoate], the IC50 (read-out: IC50) worked out at 5.8 µM. `CC1=CC(C)C(C2/C(=N/C3CCc4ccccc43)NC(=S)N2c2ccc3[nH]cnc3c2)CC1` (stereo not drawn) [Compound 273, 1-(1H-Benzoimidazol-5-yl)-5-(2,4-dimethyl-cyclohex-3-enyl)-4-indan-1-ylimino-imidazolidine-2-thione]: the IC50 (read-out: IC50) was 7.6 µM.

Turning to `N#Cc1cccc(/N=C2\NC(=S)N(c3ccc4[nH]cnc4c3)C2c2ccc3c(c2)OCCO3)c1` (stereo not drawn) [Compound 126, 3-(1-(1H-benzo[d]imidazol-5-yl)-5-(2,3-dihydrobenzo[b][1,4]dioxin-6-yl)-2-thioxoimidazolidin-4-ylideneamino)benzo-nitrile], the 50% inhibitory concentration (IC50) (read-out: IC50) was found to be 4.9 µM. For the molecule `CSc1ccc(C2C(=NCn3nnc4ccccc43)NC(=O)N2c2ccc3[nH]cnc3c2)cc1` (stereo not drawn) [Compound 181, 1-(1H-Benzoimidazol-5-yl)-4-benzotriazol-1-ylmethylimino-5-(4-methylsulfanyl-phenyl)-imidazolidin-2-one], the IC50 (read-out: IC50) is 1.3 µM.

As for `O=C1N/C(=N\C(c2ccccc2)c2ccccc2)C(c2ccc(O)cc2)N1CCCn1ccnc1` (stereo not drawn) [Compound 89, 4-Benzhydrylimino-5-(4-hydroxy-phenyl)-1-(3-imidazol-1-yl-propyl)-imidazolidin-2-one], where the note is “read-out: IC50”, the IC50 was 9.4 µM.

As to `O=C1N/C(=N\CCC(c2ccccc2)c2ccccc2)C(c2cccc(F)c2F)N1CCCn1ccnc1` (stereo not drawn) [Compound 107], the half-maximal inhibitory concentration (IC50) (read-out: IC50) is 6.7 µM.

With `OC(CN=C1NC(=S)N(c2ccc3[nH]cnc3c2)C1c1cc(F)cc(F)c1)c1ccccc1` (stereo not drawn) [Compound 229, 1-(1H-Benzoimidazol-5-yl)-5-(3,5-difluoro-phenyl)-4-2-hydroxy-2-phenyl-ethylimino-imidazolidine-2-thione], the 50% inhibitory concentration (IC50) (read-out: IC50) worked out at 8.5 µM. With `S=C1N/C(=N\C2CCCC2)C(c2ccc3ccccc3c2)N1c1ccc2[nH]cnc2c1` (stereo not drawn) [Compound 256, 1-(1H-Benzoimidazol-5-yl)-4-cyclopentylimino-5-naphthalen-2-yl-imidazolidine-2-thione], the IC50 (read-out: IC50) was found to be 9.4 µM.

With `CN(C)CCCN=C1NC(=O)N(c2ccc3[nH]cnc3c2)C1c1ccc2ccccc2c1` (stereo not drawn) [Compound 157, 1-(1H-Benzoimidazol-5-yl)-4-3-dimethylamino-propylimino-5-naphthalen-2-yl-imidazolidin-2-one], the IC50 (read-out: IC50) came out at 5.8 µM.

For the molecule `S=C1N/C(=N/CCCc2ccccc2)C(c2ccc3[nH]ccc3c2)N1c1ccc2[nH]cnc2c1` (stereo not drawn) [Compound 284, 1-(1H-Benzoimidazol-5-yl)-5-(1H-indol-5-yl)-4-3-phenyl-propylimino-imidazolidine-2-thione], the IC50 (read-out: IC50) came out at 1.3 µM. `S=C1N/C(=N\C2CCCC2)C(c2ccc(Cl)cc2)N1c1ccc2[nH]cnc2c1` (stereo not drawn) [Compound 272, 1-(1H-Benzoimidazol-5-yl)-5-(4-chloro-phenyl)-4-cyclopentylimino-imidazolidine-2-thione]: the 50% inhibitory concentration (IC50) (read-out: IC50) amounted to 8.5 µM.

Take `O=C1N/C(=N\C(Cc2ccccc2)c2ccccc2)C(C2=CCCCC2)N1c1ccc2[nH]cnc2c1` (stereo not drawn) [Compound 169, 1-(1H-Benzoimidazol-5-yl)-5-cyclohex-1-enyl-4-1,2-diphenyl-ethylimino-imidazolidin-2-one]: where the note is “read-out: IC50”, the IC50 was 3.1 µM. `O=C(C/N=C1/NC(=O)N(CCCn2ccnc2)C1c1ccco1)N1CCc2ccccc2C1` (stereo not drawn) [Compound 73, 4-2-(3,4-Dihydro-1H-isoquinolin-2-yl)-2-oxo-ethylimino-5-furan-2-yl-1-(3-imidazol-1-yl-propyl)-imidazolidin-2-one]: the IC50 (read-out: IC50) turned out to be 6.7 µM. For the molecule `CC(C)/N=C1\NC(=O)N(c2ccc3[nH]cnc3c2)C1c1cccc(C#N)c1` (stereo not drawn) [Compound 174, 3-{3-(1H-Benzoimidazol-5-yl)-5-isopropylimino-2-oxo-imidazolidin-4-yl}-benzonitrile], the half-inhibitory concentration (IC50) (read-out: IC50) was determined as 0.4 µM. Regarding `S=C1N/C(=N/CCc2cccs2)C(c2cc3ccccc3s2)N1c1ccc2[nH]cnc2c1` (stereo not drawn) [Compound 260, 5-Benzobthiophen-2-yl-1-(1H-benzoimidazol-5-yl)-4-2-thiophen-2-yl-ethylimino-imidazolidine-2-thione], the half-maximal inhibitory concentration (IC50) (read-out: IC50) was 3.1 µM. In the case of `CC(C)CC(C)N=C1NC(=O)N(c2ccc3[nH]cnc3c2)C1c1ccccc1C(F)(F)F` (stereo not drawn) [Compound 298, 1-(1H-Benzoimidazol-5-yl)-4-1,3-dimethyl-butylimino-5-(2-trifluoromethyl-phenyl)-imidazolidin-2-one], under “read-out: IC50”, the concentration for half-maximal inhibition (IC50) came to 6.7 µM. Same read-out and setting: under `COC(=O)C(C)/N=C1\NC(=O)N(c2ccc3[nH]cnc3c2)C1c1ccccc1` (stereo not drawn) [Compound 234, Methyl 2-(1-(1H-benzo[d]imidazol-5-yl)-2-oxo-5-phenylimidazolidin-4-ylideneamino)propanoate] stands 7.6 µM. The same measure, in the same setting: under `COc1ccc(C2C(=NCC(=O)N3CCSCC3)NC(=S)N2c2ccc3[nH]cnc3c2)c(F)c1` (stereo not drawn) [Compound 225, 2-(1-(1H-Benzo[d]imidazol-5-yl)-5-(2-fluoro-4-methoxyphenyl)-2-thioxoimidazolidin-4-ylideneamino)-1-thiomorpholinoethanone] stands 6.7 µM; under `COC(=O)C(C)/N=C1\NC(=O)N(c2ccc3[nH]cnc3c2)C1C1CCC(C)=CC1C` (stereo not drawn) [Compound 206, Methyl 2-(1-(1H-benzo[d]imidazol-5-yl)-5-(2,4-dimethylcyclohex-3-enyl)-2-oxoimidazolidin-4-ylideneamino)propanoate], 7.6 µM.

Consider `O=C1N/C(=N\CCC(c2ccccc2)c2ccccc2)C(c2ccccc2Cl)N1CCCn1ccnc1` (stereo not drawn) [Compound 110, 5-(2-Chloro-phenyl)-4-3,3-diphenyl-propylimino-1-(3-imidazol-1-yl-propyl)-imidazolidin-2-one], for which, for the setting “read-out: IC50”, the IC50 is 6.7 µM. Consider `S=C1N/C(=N\c2cc(Cl)ccc2Cl)C(c2ccc(Cl)cc2)N1c1ccc2[nH]cnc2c1` (stereo not drawn) [Compound 194, 1-(1H-Benzoimidazol-5-yl)-5-(4-chloro-phenyl)-4-2,5-dichloro-phenylimino-imidazolidine-2-thione], for which, for the setting “read-out: IC50”, the IC50 was 6.7 µM. Turning to `O=C1N/C(=N\[C@H]2CCc3ccccc32)C(c2ccc(Br)cc2)N1c1ccc2[nH]cnc2c1` (stereo partly drawn) [Compound 333, 1-(1H-Benzoimidazol-5-yl)-5-(4-bromo-phenyl)-4-((S)-indan-1-ylimino)-imidazolidin-2-one], the IC50 stood at 0.0282 µM under setting [1] and 0.004 µM (read-out: IC50). Take `CC1=CC(C)C(C2/C(=N/c3ccc4c(c3)OCCO4)NC(=S)N2c2ccc3[nH]cnc3c2)CC1` (stereo not drawn) [Compound 330, 1-(1H-Benzoimidazol-5-yl)-4-2,3-dihydro-benzo1,4dioxin-6-ylimino-5-(2,4-dimethyl-cyclohex-3-enyl)-imidazolidine-2-thione]: the IC50 (read-out: IC50) was 9.4 µM. The same measure, in the same setting: to `O=C1N/C(=N\C2CCCCC2)C(c2ccccc2F)N1CCCn1ccnc1` (stereo not drawn) [Compound 8, 4-Cyclohexylimino-5-(2-fluoro-phenyl)-1-(3-imidazol-1-yl-propyl)-imidazolidin-2-one] belongs 8.6 µM; to `S=C1N/C(=N/Cc2ccccc2)C(c2ccc(Br)cc2)N1c1ccc2[nH]cnc2c1` (stereo not drawn) [Compound 133, 1-(1H-Benzoimidazol-5-yl)-4-benzylimino-5-(4-bromo-phenyl)-imidazolidine-2-thione], 5.8 µM.

For the molecule `Cc1ccc(C2/C(=N/C3CCCCC3O)NC(=O)N2c2ccc3nc[nH]c3c2)c(C)c1` (stereo not drawn) [Compound 329, 1-(3H-Benzoimidazol-5-yl)-5-(2,4-dimethyl-phenyl)-4-2-hydroxy-cyclohexylimino-imidazolidin-2-one], the IC50 (read-out: IC50) is 6.7 µM. Same read-out and setting: to `O=C1CCCN1CCC/N=C1/NC(=O)N(c2ccc3[nH]cnc3c2)C1c1cccc(Br)c1` (stereo not drawn) [Compound 241, 1-(1H-Benzoimidazol-5-yl)-5-(3-bromo-phenyl)-4-3-(2-oxo-pyrrolidin-1-yl)-propylimino-imidazolidin-2-one] belongs 0.004 µM; to `S=C1N/C(=N\C(Cc2ccccc2)c2ccccc2)C(c2cccc(Br)c2)N1c1ccc2[nH]cnc2c1` (stereo not drawn) [Compound 164, 1-(1H-Benzoimidazol-5-yl)-5-(3-bromo-phenyl)-4-1,2-diphenyl-ethylimino-imidazolidine-2-thione], 9.4 µM.
